Data taken from ChEMBL document CHEMBL1201862, “PubChem BioAssay data set” (2004).
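Exposure lasted 48 hours, with cells grown in 96-well plates and compounds tested at five concentrations. Abbreviation: GI50, concentration required for 50% inhibition of growth.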 The source made the active and inactive calls. Cut-off read from the data, not from the text of the source: active = GI50 up to about 1.1 µM and inactive = higher.

How the values were obtained:
Assay in all cases: NCI anticancer screen, dose series, 48 h
HOP-92 = test system: HOP-92
RXF 393 = test system: RXF 393
SK-OV-3 = test system: SK-OV-3
SK-MEL-2 = test system: SK-MEL-2
PC-3 = test system: PC-3
NCI-H226 = test system: NCI-H226
OVCAR-3 = test system: OVCAR-3
NCI-H522 = test system: NCI-H522
A549 = test system: A549
COLO 205 = test system: COLO 205
NCI/ADR-RES = test system: NCI/ADR-RES
SF-268 = test system: SF-268
SK-MEL-28 = test system: SK-MEL-28
RPMI-8226 = test system: RPMI-8226
ACHN = test system: ACHN
SF-295 = test system: SF-295
SNB-19 = test system: SNB-19
UO-31 = test system: UO-31
MDA-N = test system: MDA-N
MDA-MB-231 = test system: MDA-MB-231

| SMILES | GI50 (HOP-92) | GI50 (RXF 393) | GI50 (SK-OV-3) | GI50 (SK-MEL-2) | GI50 (PC-3) | GI50 (NCI-H226) | GI50 (OVCAR-3) | GI50 (NCI-H522) | GI50 (A549) | GI50 (COLO 205) | GI50 (NCI/ADR-RES) | GI50 (SF-268) | GI50 (SK-MEL-28) | GI50 (RPMI-8226) | GI50 (ACHN) | GI50 (SF-295) | GI50 (SNB-19) | GI50 (UO-31) | GI50 (MDA-N) | GI50 (MDA-MB-231) |
| --- | --- | --- | --- | --- | --- | --- | --- | --- | --- | --- | --- | --- | --- | --- | --- | --- | --- | --- | --- | --- |
| COc1nc2ncc([C@@H](O)[C@H](O)CO)nc2c(=O)n1C | > 100 µM (inactive) | > 100 µM (inactive) | > 100 µM (inactive) | > 100 µM (inactive) | > 100 µM (inactive) | > 100 µM (inactive) | > 100 µM (inactive) | > 100 µM (inactive) | > 100 µM (inactive) | > 100 µM (inactive) | > 100 µM (inactive) | > 100 µM (inactive) | > 100 µM (inactive) | > 100 µM (inactive) | > 100 µM (inactive) | > 100 µM (inactive) | > 100 µM (inactive) | > 100 µM (inactive) | > 100 µM (inactive) | > 100 µM (inactive) |
| O=c1cc(N2CCCC2)[nH]c(=O)n1-c1ccc(Cl)cc1 | > 100 µM (inactive) | > 100 µM (inactive) | > 100 µM (inactive) | > 100 µM (inactive) | > 100 µM (inactive) | > 100 µM (inactive) | > 100 µM (inactive) | > 100 µM (inactive) | > 100 µM (inactive) | > 100 µM (inactive) | > 100 µM (inactive) | > 100 µM (inactive) | > 100 µM (inactive) | > 100 µM (inactive) | > 100 µM (inactive) | > 100 µM (inactive) | > 100 µM (inactive) | – | > 100 µM (inactive) | > 100 µM (inactive) |
| O=C(O)c1cc(/N=C/c2ccccc2O)cc(C(=O)O)c1 | > 100 µM (inactive) | > 100 µM (inactive) | > 100 µM (inactive) | > 100 µM (inactive) | > 100 µM (inactive) | > 100 µM (inactive) | 15.3 µM (inactive) | > 100 µM (inactive) | > 100 µM (inactive) | > 100 µM (inactive) | > 100 µM (inactive) | > 100 µM (inactive) | > 100 µM (inactive) | > 100 µM (inactive) | > 100 µM (inactive) | > 100 µM (inactive) | > 100 µM (inactive) | > 100 µM (inactive) | > 100 µM (inactive) | > 100 µM (inactive) |
| O=S(=O)(c1ccc(Br)cc1)N1CCN(S(=O)(=O)c2ccc(Br)cc2)CC1 | > 100 µM (inactive) | > 100 µM (inactive) | > 100 µM (inactive) | > 100 µM (inactive) | > 100 µM (inactive) | > 100 µM (inactive) | > 100 µM (inactive) | > 100 µM (inactive) | > 100 µM (inactive) | > 100 µM (inactive) | > 100 µM (inactive) | > 100 µM (inactive) | > 100 µM (inactive) | > 100 µM (inactive) | > 100 µM (inactive) | > 100 µM (inactive) | > 100 µM (inactive) | > 100 µM (inactive) | > 100 µM (inactive) | > 100 µM (inactive) |
| O=C1CC(CC(=O)c2ccc(Br)cc2)C(O)=C1C(=O)c1ccc(Br)cc1 (stereo not drawn) | 30.1 µM (inactive) | > 100 µM (inactive) | > 100 µM (inactive) | > 100 µM (inactive) | 98.2 µM (inactive) | > 100 µM (inactive) | 32.6 µM (inactive) | 51.6 µM (inactive) | > 100 µM (inactive) | > 100 µM (inactive) | > 100 µM (inactive) | 87.1 µM (inactive) | > 100 µM (inactive) | > 100 µM (inactive) | > 100 µM (inactive) | 53.1 µM (inactive) | 56.2 µM (inactive) | 57.9 µM (inactive) | > 100 µM (inactive) | 72.9 µM (inactive) |
| CC[C@@]1(O)C(=O)OCc2c1cc1n(c2=O)Cc2c-1nc1ccc(O)cc1c2[Si](C)(C)C(C)(C)C [AR-67] | 0.0132 µM (active) | < 0.01 µM (active) | 0.557 µM (active) | 0.125 µM (active) | < 0.0208 µM (active) | < 0.01 µM (active) | 0.0261 µM (active) | < 0.01 µM (active) | < 0.01 µM (active) | 0.031 µM (active) | 0.0324 µM (active) | < 0.01 µM (active) | 0.0317 µM (active) | < 0.0152 µM (active) | < 0.01 µM (active) | – | < 0.01 µM (active) | < 0.01 µM (active) | < 0.0132 µM (active) | 0.286 µM (active) |
| CCCCCNc1nonc1N | > 100 µM (inactive) | > 100 µM (inactive) | > 100 µM (inactive) | > 100 µM (inactive) | > 100 µM (inactive) | > 100 µM (inactive) | > 100 µM (inactive) | > 100 µM (inactive) | > 100 µM (inactive) | > 100 µM (inactive) | > 100 µM (inactive) | > 100 µM (inactive) | > 100 µM (inactive) | > 100 µM (inactive) | > 100 µM (inactive) | > 100 µM (inactive) | > 100 µM (inactive) | > 100 µM (inactive) | > 100 µM (inactive) | > 100 µM (inactive) |
